Measurements from ChEMBL document CHEMBL1145505, “Bisphosphonates target multiple sites in both cis- and trans-prenyltransferases” (Proc Natl Acad Sci U S A, 2007).
Several values for one entry are separate records, joined by “and”; a condition that tells them apart may be missing. Equal entries are not always repeated.

Columns and labels:
[1] = Inhibition of Escherichia coli OPPS
[2] = Inhibition of Sulfolobus solfataricus HPPS; parameters: species or system Saccharolobus solfataricus
[3] = Inhibition of Escherichia coli UPPS

IC50 [1] | IC50 [2] | IC50 [3] | Compound
75 nM | 360000 nM | – | O=P(O)(O)C(O)(COc1cccc(-c2cccc(-c3ccccc3)c2)c1)P(=O)(O)O
– | – | 120 µM | O=P([O-])(O)C(C[n+]1cccc(-c2ccccc2-c2ccccc2)c1)P(=O)(O)O (configuration not stated)
– | – | 2 µM | O=P(O)(O)C(O)(Cc1ccc(-c2ccc(-c3ccccc3)cc2)cc1)P(=O)(O)O
32000 nM | 1200 nM | – | O=P(O)(O)C(O)(Cc1cccc(-c2cccc3c2oc2ccccc23)c1)P(=O)(O)O
– | – | 10 µM | O=P(O)(O)C(O)(CCc1cccc(-c2ccc(-c3ccccc3)cc2)c1)P(=O)(O)O
– | – | 34 µM | O=P([O-])(O)C(C[n+]1cccc(-c2cccc3c2oc2ccccc23)c1)P(=O)(O)O (configuration not stated)
– | – | 28 µM | O=P([O-])(O)C(C[n+]1ccc(-c2ccc(-c3ccccc3)cc2)cc1)P(=O)(O)O (configuration not stated)
– | – | 3.1 µM | O=P(O)(O)C(O)(CCc1cccc(-c2ccccc2-c2ccccc2)c1)P(=O)(O)O
– | – | 1 µM | O=P(O)(O)C(O)(Cc1ccc(-c2cccc(-c3ccccc3)c2)cc1)P(=O)(O)O
– | – | 68 µM and 21 µM | O=P([O-])(O)C(C[n+]1cccc(-c2cccc(-c3ccccc3)c2)c1)P(=O)(O)O (configuration not stated)
– | – | 13 µM | O=P([O-])(O)C(O)(C[n+]1ccc(-c2cccc3c2oc2ccccc23)cc1)P(=O)(O)O (configuration not stated)
– | – | 490 µM | O=P([O-])(O)C(O)(C[n+]1cccc(F)c1)P(=O)(O)O (configuration not stated)
5400 nM | 420 nM | – | O=P(O)(O)C(O)(Cc1cccc(-c2cccc(NS(=O)(=O)c3ccc4ccccc4c3)c2)c1)P(=O)(O)O
– | – | 200 µM | O=P(O)(O)C(O)(Cc1ccccc1)P(=O)(O)O
870000 nM | 2700 nM | – | O=P(O)(O)C(O)(Cc1cccc(-c2ccc(-c3ccccc3)cc2)c1)P(=O)(O)O
– | – | 87 µM | O=P(O)(O)C1(P(=O)(O)O)CC(c2ccc(Cl)c(Cl)c2)=NO1
– | – | 5.5 µM | O=P(O)(O)C(O)(CCc1cccc(-c2cccc(-c3ccccc3)c2)c1)P(=O)(O)O
– | – | 1.8 µM | O=P(O)(O)C(O)(c1cccc(-c2cccc(-c3ccccc3)c2)c1)P(=O)(O)O
2100 nM | 50 nM | – | O=P(O)(O)C(O)(Cc1cnc2ccccn12)P(=O)(O)O [MINODRONIC ACID]
430 nM | 460 nM | – | O=P(O)(O)C(O)(Cc1cccc(-c2cccc(-c3ccccc3)c2)c1)P(=O)(O)O
– | – | 12 µM | O=P(O)(O)C(O)(CCc1ccc(-c2cccc3c2oc2ccccc23)cc1)P(=O)(O)O
– | – | 69 µM | O=P(O)(O)C(CCCc1ccc(-c2ccccc2)cc1)P(=O)(O)O
– | – | 35 µM | O=P([O-])(O)C(C[n+]1cccc(-c2ccc(-c3ccccc3)cc2)c1)P(=O)(O)O (configuration not stated)
– | – | 48 µM | O=P([O-])(O)C(O)(C[n+]1cccc(-c2ccccc2)c1)P(=O)(O)O (configuration not stated)
– | – | 6.8 µM | O=P(O)(O)C(O)(Cc1cccc(-c2ccccc2)c1)P(=O)(O)O
– | – | 89 µM | CC(C)=CCC/C(C)=C/Cc1ccc[n+](CC(P(=O)([O-])O)P(=O)(O)O)c1 (configuration not stated)
38 nM | 90 nM | 660 µM | O=P(O)(O)C(O)(Cc1cccnc1)P(=O)(O)O [RISEDRONIC ACID]

Compound | IC50 [1] | IC50 [2] | IC50 [3]
O=P(O)(O)C(O)(Cn1ccnc1)P(=O)(O)O [ZOLEDRONIC ACID] | 38 nM | 90 nM | –
